ChEMBL document CHEMBL3886974, “Imidazopyrazines” (2016)

Target: T1, Dual specificity protein kinase TTK (Homo sapiens, UniProt P33981)
T1 sequence (P33981 whole entry): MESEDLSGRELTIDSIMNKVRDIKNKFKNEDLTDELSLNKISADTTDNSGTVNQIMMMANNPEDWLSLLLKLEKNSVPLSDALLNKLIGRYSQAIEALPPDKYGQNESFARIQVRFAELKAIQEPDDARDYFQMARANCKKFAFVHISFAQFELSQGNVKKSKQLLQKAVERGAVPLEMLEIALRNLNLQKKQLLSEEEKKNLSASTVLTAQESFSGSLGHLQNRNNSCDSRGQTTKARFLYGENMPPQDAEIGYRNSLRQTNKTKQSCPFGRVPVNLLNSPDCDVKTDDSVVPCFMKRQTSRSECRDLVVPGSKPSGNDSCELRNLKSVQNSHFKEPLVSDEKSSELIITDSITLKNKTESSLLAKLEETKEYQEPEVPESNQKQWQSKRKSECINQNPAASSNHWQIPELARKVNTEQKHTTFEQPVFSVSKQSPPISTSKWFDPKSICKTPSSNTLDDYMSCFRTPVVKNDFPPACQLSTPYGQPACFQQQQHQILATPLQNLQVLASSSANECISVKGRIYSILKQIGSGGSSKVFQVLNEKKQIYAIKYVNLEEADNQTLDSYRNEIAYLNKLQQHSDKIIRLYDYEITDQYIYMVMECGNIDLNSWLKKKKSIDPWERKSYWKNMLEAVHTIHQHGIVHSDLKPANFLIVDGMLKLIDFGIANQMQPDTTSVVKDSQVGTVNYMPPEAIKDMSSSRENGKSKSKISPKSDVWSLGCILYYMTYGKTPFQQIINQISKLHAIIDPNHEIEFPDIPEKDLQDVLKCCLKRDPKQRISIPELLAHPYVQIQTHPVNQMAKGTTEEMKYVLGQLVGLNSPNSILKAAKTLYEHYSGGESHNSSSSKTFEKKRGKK
Experiment: Kinase Assay: For the assay 50 nl of a 100-fold concentrated solution of the test compound in DMSO was pipetted into a black low volume 384 well microtiter plate (Greiner Bio-One, Frickenhausen, Germany), 2 ul of a solution of Mps-1 in assay buffer [0.1 mM sodium-ortho-vanadate, 10 mM MgCl2, 2 mM DTT, 25 mM Hepes pH 7.7, 0.05% BSA, 0.001% Pluronic F-127] were added and the mixture was incubated for 15 min at 22° C. to allow pre-binding of the test compounds to Mps-1 before the start of the kinase reaction. Then the kinase reaction was started by the addition of 3 ul of a solution of 16.7 adenosine-tri-phosphate (ATP, 16.7 uM=>final conc. in the 5 ul assay volume is 10 uM) and peptide substrate (1.67 uM=>final conc. in the 5 ul assay volume is 1 uM) in assay buffer and the resulting mixture was incubated for a reaction time of 60 min at 22° C. The concentration of Mps-1 in the assay was adjusted to the activity of the enzyme lot and was chosen appropriate to have the assay in the linear range, typical enzyme concentrations were in the range of about 1 nM (final conc. in the 5 ul assay volume). […]

SMILES: CSc1nc(-c2ccccc2)cn2c(-c3ccc(C(=O)NC4CC4)cc3)cnc12
- IC50: 0.0257 µM

SMILES: CSc1nc(C#CCO)cn2c(-c3ccc(-c4cnc(C5CC5)[nH]4)cc3)cnc12
- IC50: 0.151 µM
